Compound: CC(=O)Nc1cccc(-n2c(=O)n(C3CC3)c(=O)c3c(Nc4ccc(I)cc4F)n(C)c(=O)c(C)c32)c1 [Trametinib]
Test: relative viability (nuclei count vs DMSO), 5 days (fraction); higher = more cells survive
Procedure, shortened: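 Lung cancer cell lines received five library-drug doses (not always all listed) spaced by √10, pinned on vehicle-anchored 1536-well plates after an overnight stay at 37 °C. Five days later, with no medium change, nuclei were Hoechst-stained, imaged at 4× and counted with MetaXpress. Viability is treated-well nuclei relative to vehicle-well nuclei, as a median across plates. Passing plates had control CV below 25% and at least one doubling.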

| Cell Line | relative viability (0.0025 µM) | relative viability (0.007906 µM) | relative viability (0.02 µM, anchor plate) | relative viability (0.025 µM) | relative viability (0.07906 µM) | relative viability (0.25 µM) |
| --- | --- | --- | --- | --- | --- | --- |
| 201T | 0.96 | 0.886 | 0.721 | 0.845 | 0.778 | 0.761 |
| A549 | 0.864 | 0.658 |  | 0.375 | 0.278 | 0.14 |
| A-427 | 1.04 | 0.96 | 0.77 | 0.66 | 0.68 | 0.35 |
| ABC-1 | 0.963 | 0.908 |  | 0.749 | 0.547 | 0.333 |
| BEN | 0.953 | 0.96 | 1.07 | 0.566 | 0.658 | 0.814 |
| CAL-12T | 0.904 | 0.723 | 0.369 | 0.503 | 0.51 | 0.343 |
| COR-L23 | 0.979 | 0.995 | 0.593 | 0.871 | 0.849 | 0.476 |
| COR-L 105 | 0.835 | 0.786 | 0.446 | 0.426 | 0.386 | 0.426 |
| Calu-6 | 0.915 | 0.727 |  | 0.472 | 0.24 | 0.18 |
| ChaGo-K-1 | 0.999 | 0.921 | 0.917 | 0.951 | 0.861 | 0.764 |
| EBC-1 | 1 | 0.98 |  | 0.648 | 0.308 | 0.207 |
| EKVX | 0.852 | 0.766 | 0.364 | 0.583 | 0.491 | 0.395 |
| EMC-BAC-2 | 1.2 | 1.01 | 0.859 | 0.775 | 0.61 | 0.635 |
| EPLC-272H | 0.844 | 0.644 | 0.287 | 0.503 | 0.327 | 0.188 |
| H3255 | 0.973 | 0.879 | 0.631 | 0.787 | 0.742 | 0.563 |
| HARA | 0.861 | 0.947 | 0.674 | 0.86 | 0.503 | 0.375 |
| HCC-15 | 0.795 | 0.541 | 0.389 | 0.544 | 0.325 | 0.28 |
| HCC-44 | 0.966 | 0.982 | 1.05 | 1.02 | 0.82 | 0.495 |
| HCC-78 | 0.933 | 0.735 | 0.805 | 0.678 | 0.573 | 0.526 |
| HCC-366 | 0.959 | 0.969 | 0.373 | 0.796 | 0.669 | 0.395 |
| HCC-827 | 0.999 | 0.958 | 0.508 | 0.92 | 0.738 | 0.609 |
| HOP-62 | 1 | 0.943 | 0.4 | 0.778 | 0.444 | 0.209 |
| IA-LM | 0.764 | 0.464 |  | 0.166 | 0.178 | 0.107 |
| LC-2-ad | 0.948 | 0.871 | 0.9 | 0.875 | 0.587 | 0.596 |
| LCLC-97TM1 | 0.884 | 0.836 | 0.197 | 0.398 | 0.204 | 0.138 |
| LCLC-103H | 0.92 | 0.869 | 0.672 | 0.814 | 0.697 | 0.685 |
| LK-2 | 0.93 | 0.832 | 0.761 | 0.989 | 0.757 | 0.388 |

| Cell Line | relative viability (0.0025 µM) | relative viability (0.007906 µM) | relative viability (0.02 µM, anchor plate) | relative viability (0.025 µM) | relative viability (0.07906 µM) | relative viability (0.25 µM) |
| --- | --- | --- | --- | --- | --- | --- |
| LOU-NH91 | 0.926 | 0.923 | 0.799 | 0.761 | 0.8 | 0.366 |
| LU99A | 0.953 | 0.829 | 0.53 | 0.551 | 0.707 | 0.681 |
| LXF-289 | 0.897 | 0.86 | 0.679 | 0.755 | 0.722 | 0.664 |
| NCI-H23 | 0.876 | 0.831 | 0.417 | 0.349 | 0.433 | 0.264 |
| NCI-H322M | 0.81 | 0.717 | 0.519 | 0.603 | 0.556 | 0.432 |
| NCI-H358 | 0.643 | 0.472 | 0.137 | 0.328 | 0.27 | 0.259 |
| NCI-H441 | 0.959 | 0.908 | 0.522 | 0.667 | 0.605 | 0.246 |
| NCI-H460 | 0.982 | 0.969 | 0.159 | 0.668 | 0.339 | 0.12 |
| NCI-H520 | 0.86 | 1.06 | 0.735 | 0.924 | 0.949 | 0.623 |
| NCI-H522 | 1.01 | 1.04 | 0.776 | 0.595 | 0.756 | 0.63 |
| NCI-H596 | 0.934 | 0.872 | 0.787 | 0.802 | 0.712 | 0.47 |
| NCI-H647 | 0.837 | 0.754 | 0.516 | 0.588 | 0.554 | 0.293 |
| NCI-H650 | 1.1 | 1.24 | 0.98 | 1.08 | 0.957 | 0.623 |
| NCI-H661 | 1.01 | 0.975 | 0.575 | 0.899 | 0.799 | 0.724 |
| NCI-H727 | 0.678 | 0.381 | 0.389 | 0.381 | 0.295 | 0.288 |
| NCI-H838 | 0.873 | 0.855 | 0.527 | 0.615 | 0.763 | 0.594 |
| NCI-H1299 | 1.04 | 1.04 |  | 0.897 | 0.818 | 0.584 |
| NCI-H1355 | 0.921 | 0.796 | 0.419 | 0.542 | 0.653 | 0.583 |
| NCI-H1395 | 1.03 | 0.83 | 1.03 | 0.69 | 0.67 | 0.523 |
| NCI-H1437 | 0.959 | 0.742 | 0.535 | 0.478 | 0.388 | 0.361 |
| NCI-H1563 | 0.983 | 0.782 |  | 0.952 | 0.938 | 0.723 |
| NCI-H1623 | 0.839 | 0.74 |  | 0.552 | 0.569 | 0.523 |
| NCI-H1648 | 0.776 | 0.864 | 0.505 | 0.809 | 0.541 | 0.455 |
| NCI-H1650 | 0.902 | 0.898 | 0.583 | 0.827 | 0.599 | 0.264 |
| NCI-H1651 | 0.942 | 0.958 | 0.837 | 0.851 | 0.837 | 0.691 |
| NCI-H1666 | 0.972 | 0.931 | 0.864 | 0.892 | 0.724 | 0.617 |
| NCI-H1703 | 0.778 | 0.906 |  | 0.825 | 0.875 | 0.684 |

| Cell Line | relative viability (0.0025 µM) | relative viability (0.007906 µM) | relative viability (0.02 µM, anchor plate) | relative viability (0.025 µM) | relative viability (0.07906 µM) | relative viability (0.25 µM) |
| --- | --- | --- | --- | --- | --- | --- |
| NCI-H1734 | 0.959 | 0.92 | 0.717 |  | 0.911 | 0.41 |
| NCI-H1755 | 0.886 | 0.879 | 0.773 | 0.83 | 0.885 | 0.842 |
| NCI-H1792 | 0.844 | 0.856 | 0.475 | 0.477 | 0.387 | 0.281 |
| NCI-H1793 | 0.59 | 0.611 | 0.429 | 0.298 | 0.338 | 0.254 |
| NCI-H1915 | 1.05 | 0.737 | 0.3 | 0.54 | 0.423 | 0.353 |
| NCI-H1944 | 0.989 | 0.672 | 0.427 | 0.558 | 0.487 | 0.363 |
| NCI-H1975 | 0.883 | 0.76 | 0.374 | 0.754 | 0.431 | 0.301 |
| NCI-H1993 | 0.698 | 0.732 | 0.54 | 0.548 | 0.693 | 0.628 |
| NCI-H2009 | 0.864 | 0.647 | 0.297 | 0.384 | 0.355 | 0.331 |
| NCI-H2023 | 0.964 | 0.765 | 0.611 | 0.655 | 0.632 | 0.334 |
| NCI-H2085 | 0.913 | 0.823 | 0.504 | 0.754 | 0.783 | 0.729 |
| NCI-H2087 | 0.867 | 0.463 | 0.217 | 0.302 | 0.179 | 0.139 |
| NCI-H2126 | 0.9 | 0.836 | 0.572 | 0.585 | 0.738 | 0.669 |
| NCI-H2170 | 0.96 | 0.955 | 0.94 |  | 0.929 | 0.923 |
| NCI-H2228 | 0.771 | 0.885 | 0.555 | 0.811 | 0.61 | 0.363 |
| NCI-H2342 | 0.958 | 0.915 | 0.847 | 0.554 | 0.749 | 0.855 |
| NCI-H2347 | 0.988 | 0.535 | 0.285 | 0.377 | 0.356 | 0.371 |
| NCI-H2405 | 0.944 | 0.946 | 0.665 | 0.553 | 0.535 | 0.556 |
| NCI-H3122 | 0.909 | 0.701 | 0.231 | 0.465 | 0.361 | 0.281 |
| PC-3 [JPC-3] | 1.03 | 0.916 | 0.7 | 0.843 | 0.764 | 0.637 |
| PC-14 | 1.03 | 0.953 | 0.756 | 0.758 | 0.626 | 0.226 |
| RERF-LC-KJ | 0.969 | 0.926 | 0.873 | 0.885 | 0.848 | 0.757 |
| SK-LU-1 | 1.03 | 0.88 | 0.475 | 0.641 | 0.548 | 0.412 |
| SK-MES-1 | 0.948 | 0.803 | 0.574 | 0.621 | 0.485 | 0.359 |
| SW 900 | 0.713 | 0.811 | 0.808 | 0.751 | 0.771 | 0.19 |
| SW 1573 | 0.875 | 0.716 | 0.615 | 0.631 | 0.583 | 0.485 |
